What all share (type): biochemical
The subject of one assay is α-amylase. In words: α-amylase inhibition (in vitro anti-diabetic activity). From the text:
(§1) The anti-diabetic effects of the ethyl acetate fraction from dried P. guajava leaves, collected in March and August, were compared in vitro. This comparison involved measuring the inhibition of carbohydrate hydrolyzing enzymes, including α-amylase, α-glucosidase, and β-galactosidase, as detailed in Naguib et al.[28].

The next assay has as its system α-glucosidase. As to the kind of experiment: α-glucosidase inhibition (in vitro anti-diabetic activity).
Excerpt: as §1

The test system of the next assay is β-galactosidase. In words: β-galactosidase inhibition (in vitro anti-diabetic activity).
Excerpt: as §1

Assay [1] is described as follows: DPPH free radical scavenging assay. The procedure:
(§2) Two distinct antioxidant assays were performed to evaluate the radical scavenging potential of the ethyl acetate fraction obtained from dried P. guajava leaves collected in March and August. […] Ascorbic acid served as the reference standard.

Assay [2] is described as follows: ABTS free radical scavenging assay. The procedure:
as §2

Assay [3] addresses T1, 5-LOX enzyme (human recombinant) (Homo sapiens, UniProt P09917).
T1 construct: purchased Sigma-Aldrich
T1 sequence (P09917 1-674): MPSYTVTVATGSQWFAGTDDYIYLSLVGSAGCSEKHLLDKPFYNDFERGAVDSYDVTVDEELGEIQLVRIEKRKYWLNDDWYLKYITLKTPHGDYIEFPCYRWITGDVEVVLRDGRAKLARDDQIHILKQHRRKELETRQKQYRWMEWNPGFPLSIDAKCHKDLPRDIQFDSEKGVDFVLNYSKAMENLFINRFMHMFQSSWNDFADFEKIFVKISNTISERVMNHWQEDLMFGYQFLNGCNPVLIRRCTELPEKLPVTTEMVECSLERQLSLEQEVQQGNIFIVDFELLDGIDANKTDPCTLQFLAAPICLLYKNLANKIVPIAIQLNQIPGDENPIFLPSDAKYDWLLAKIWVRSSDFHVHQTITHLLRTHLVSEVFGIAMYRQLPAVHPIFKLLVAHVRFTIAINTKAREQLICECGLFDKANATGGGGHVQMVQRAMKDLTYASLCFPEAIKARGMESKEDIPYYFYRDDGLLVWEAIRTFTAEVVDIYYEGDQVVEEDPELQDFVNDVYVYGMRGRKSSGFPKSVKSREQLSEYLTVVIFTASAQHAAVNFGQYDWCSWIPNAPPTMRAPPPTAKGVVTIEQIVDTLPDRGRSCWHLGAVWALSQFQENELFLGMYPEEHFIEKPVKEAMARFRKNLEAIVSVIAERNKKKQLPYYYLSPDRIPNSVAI
In words: 5-LOX enzyme inhibition assay (5-LOX kit).

Marks after values point to notes of the source that are not given here.

The inhibition is the change of the read-out against control, counted positive when it falls.

Take `C[C@H]1O[C@H](O[C@H]2[C@H](O)[C@@H](O)[C@@H](O[C@H]3[C@H](O)[C@@H](O)C(O)O[C@@H]3CO)O[C@@H]2CO)[C@H](O)[C@@H](O)[C@@H]1N[C@H]1C=C(CO)[C@@H](O)[C@H](O)[C@H]1O` (stereo partly drawn) [Acarbose]: the “α-amylase Inhibition %” value is 38.57 ± 0.17^e % in the assay on α-amylase (10 µg/mL), 79.54 ± 0.12^d % with α-amylase (50 µg/mL) and 86.31 ± 0.09^f % with α-amylase (100 µg/mL). For the same compound, the “α-glucosidase Inhibition %” value in the assay with α-glucosidase (10 µg/mL) is reported as 41.89 ± 0.10^c %; in the assay with α-glucosidase (50 µg/mL), 80.36 ± 0.08^d %; in the assay on α-glucosidase (100 µg/mL), 89.57 ± 0.15^f %. Further, the “β-galactosidase Inhibition %” value was 43.78 ± 0.12^e % in the assay on β-galactosidase (10 µg/mL), 83.72 ± 0.09^f % with β-galactosidase (50 µg/mL) and 91.40 ± 0.10^g % in the assay with β-galactosidase (100 µg/mL).
`O=C1O[C@H]([C@@H](O)CO)C(O)=C1O` [Ascorbic acid]: the “DPPH Inhibition percentages (%)” value was 73.12 ± 0.15^g % in assay [1] (10 µg/ml), 82.47 ± 0.13^h % in assay [1] (50 µg/ml) and 90.52 ± 0.09^i % in assay [1] (100 µg/ml). In addition, the figures for the “ABTS Inhibition percentages (%)” value in assay [2] (10 µg/ml), in assay [2] (50 µg/ml) and in assay [2] (100 µg/ml) were 76.02 ± 0.11^g %, 81.43 ± 0.08^h % and 87.26 ± 0.13^i %, respectively.
As for `CC(c1cc2ccccc2s1)N(O)C(N)=O` (stereo not drawn) [Zileuton], the inhibition at 1 µg/mL in assay [3] (1 µg/ml) stood at 40.62 ± 0.08%. In assay [3] (10 µg/ml), the inhibition at 10 µg/mL stood at 61.39 ± 0.14%. Also, the inhibition at 100 µg/mL in assay [3] (100 µg/ml) stood at 79.42 ± 0.13%.

The record behind these values is paper PMC12267702, “Harvest time and soil-plant relationship effects on phytochemical constituency and biological activities of psidium guajava L. leaves” (Scientific Reports, 2025).
